Experimental data published in US6864217B2, “Herbicidal compositions with substituted phenylsulfonylureas for controlling weeds in rice” (Hoechst Schering AgrEvo GmbH, priority 1998, dated 2005).
Where a name gives a salt, the structure may show the parent alone.

How the values were obtained:
Cyperus iria = assay: Table 23 field trial, treatment: 4-6 leaf stage: weed control; type: in vivo; conditions: 36 days after application
Description: (§1) Field trial: Treatment: 4-6 leaf stage, evaluation 36 days after the application.

Cyperus serotinus = assay: Table 19 field trial, treatment at the 2 leaf stage: weed control; type: in vivo; conditions: 14 days after application
Description: Field trial: Treatment at the 2 leaf stage, evaluation 14 days after the application.

Polygonum convolvulus = assay: Table 25 field trial, treatment at the 3 leaf stage: weed control; type: in vivo; conditions: 33 days after application
Description: (§2) Field trial: Treatment at the 3 leaf stage, evaluation 33 days after the application.

Oryza sativa [1] = assay: Table 10 greenhouse trial, treatment at the 1-2 leaf stage: rice damage; type: in vivo; conditions: in vivo
Protocol: (§3) Seeds or rhizome pieces of mono- and dicotyledonous weed plants are placed into sandy loam soil in plastic pots, covered with soil and grown in a greenhouse under good growth conditions (temperature, atmospheric humidity, water supply). Weeds which are encountered in the cultivation of rice are cultivated in pots in which the water level is up to 2 cm over the soil surface. Three weeks after sowing, the test plants are treated at the three-leaf stage. The active compound combinations according to the invention, formulated as wettable powders or emulsion concentrates, and, in parallel experiments, the correspondingly formulated individual active compounds are sprayed onto the green parts of the plants at different dosages using an amount of water of 300 to 600 l/ha (converted), and, after about 3 to 4 weeks of the test plants in the greenhouse under optimum growth conditions (temperature, atmospheric humidity, water supply), the effect of the preparations is evaluated visually in comparison to untreated controls. In the case of rice or weeds which are encountered in the cultivation of rice, the active compounds are also added directly to the water for irrigation (application analogous to the so-called granules application) or sprayed onto plants and added to the water for irrigation. The experiments were designed with several, up to five, repetitions. The herbicidal compositions according to the invention also have good herbicidal post-emergence activity against a broad spectrum of economically important weed grasses and broad-leaved weeds.
(§4) Greenhouse trial: Treatment at the 1-2 leaf stage, evaluation 20 days after the application.

Echinochloa crusgalli [2] = assay: Table 18 field trial, treatment at the 1-2 leaf stage: weed control; type: in vivo; conditions: 14 days after application
Description: Field trial: Treatment at the 1-2 leaf stage, evaluation 14 days after the application.

Oryza sativa [3] = assay: Table 23 field trial, treatment: 4-6 leaf stage: rice damage; type: in vivo; conditions: 36 days after application
Description: as §1

Oryza sativa [4] = assay: Table 21 field trial, treatment at the 2 leaf stage: rice damage; type: in vivo; conditions: 2.5 g of ai/ha; field trial, 28 days after application
Description: Field trial: Treatment at the 2 leaf stage, evaluation 28 days after the application.

Echinochloa crusgalli [5] = assay: Table 4 field trial: weed control; type: in vivo
Protocol: (§5) The examples mentioned below were carried out in the greenhouse, and in some instances, in field trials.

Sagittaria pygmaea = assay: Table 14 greenhouse trial, treatment at the 3-4 leaf stage: weed control; type: in vivo; conditions: 21 days after application
Protocol: as §3
Greenhouse trial: Treatment at the 3-4 leaf stage, evaluation 21 days after the application.

Leptochloa filiformis = assay: Table 2a field trial, treatment at the 2-3 leaf stage weed grasses: weed control; type: in vivo; conditions: 28 days after application
Protocol: as §5

Oryza sativa [6] = assay: Table 22 field trial, treatment: 1-2 leaf stage: rice damage; type: in vivo; conditions: 28 days after application
Description: Field trial: Treatment: 1-2 leaf stage, evaluation 28 days after the application.

Oryza sativa [7] = assay: Table 5 field trial, treatment at the 2-4 leaf stage rice: rice damage; type: in vivo; conditions: evaluation after 28 days
Protocol: as §5

Oryza sativa [8] = assay: Table 16 greenhouse trial, treatment at the 2-3 leaf stage: rice damage; type: in vivo; conditions: 20 days after application
Protocol: as §3
Greenhouse trail: Treatment at the 2-3 leaf stage, evaluation 20 days after the application.

Oryza sativa [9] = assay: Table 8 greenhouse trial, treatment at the 1-2 leaf stage: rice damage; type: in vivo; conditions: 22 days after application
Description: as §3, with “Three weeks after sowing, the test plants are treated at the three-leaf stage.” left out

Oryza sativa [10] = assay: Table 12 greenhouse trial, treatment at the 1-2 leaf stage: rice damage; type: in vivo; conditions: in vivo
Protocol: as §3, §4

Commelina benghalensis = assay: Table 26 field trial, treatment at the 3 leaf stage: weed control; type: in vivo; conditions: 33 days after application
Description: as §2

Echinochloa crusgalli [11] = assay: Table 6 field trial, treatment at the 1-2 leaf stage: weed control; type: in vivo; conditions: 2 g of ai/ha, 28 days after application
Protocol: as §5

Echinochloa crusgalli [12] = assay: Table 5 field trial, treatment at the 2-4 leaf stage rice: weed control; type: in vivo; conditions: evaluation after 28 days
Protocol: as §5

Oryza sativa [13] = assay: Table 24 field trial, treatment by the pre-emergence method: rice damage; type: in vivo; conditions: field trial, pre-emergence method, 53 days after application
Description: Field trial: Treatment by the pre-emergence method, evaluation 53 days after the application.

Oryza sativa [14] = assay: Table 4 field trial: rice damage
Protocol: as §5

COC(=O)c1ccc(I)cc1S(=O)(=O)NC(=O)Nc1nc(C)nc(OC)n1 [A1*), Sodium salt of methyl 4-iodo-2-[3-(4-methoxy-6-methyl-1,3,5-triazin-2-yl)ureidosulfonyl]benzoate]
CYPIR % control (Cyperus iria; 0.62 g of ai/ha): 53% | CYPIR % control (Cyperus iria; 1.25 g of ai/ha): 85% | CYPIR % control (Cyperus iria; 2.5 g of ai/ha): 98% | CYPSE % control (Cyperus serotinus; 1.5 g of ai/ha): 10% | CYPSE % control (Cyperus serotinus; 3 g of ai/ha): 30% | POLCO % control (Polygonum convolvulus; 1.25 g of ai/ha): 35% | POLCO % control (Polygonum convolvulus; 2.5 g of ai/ha): 80% | ORYSW % damage (Oryza sativa [1]): 10% | ECHCG % control (Echinochloa crusgalli [2]; 1 g of ai/ha): 5% | ECHCG % control (Echinochloa crusgalli [2]; 2 g of ai/ha): 25% | ORYSW % damage (Oryza sativa [3]; 0.62 g of ai/ha): 3% | ORYSW % damage (Oryza sativa [3]; 1.25 g of ai/ha): 8% | ORYSW % damage (Oryza sativa [3]; 2.5 g of ai/ha): 12% | ORYSW % damage (Oryza sativa [4]): 8% | ECHCG % control (Echinochloa crusgalli [5]; 1.25 g of ai/ha): 0% | ECHCG % control (Echinochloa crusgalli [5]; 2.5 g of ai/ha): 0% | ECHCG % control (Echinochloa crusgalli [5]; 5 g of ai/ha): 0% | SAGPY % control (Sagittaria pygmaea; 1.5 g of ai/ha): 30% | SAGPY % control (Sagittaria pygmaea; 3 g of ai/ha): 50% | LEFFI % control (Leptochloa filiformis; 1.25 g of ai/ha): 0% | LEFFI % control (Leptochloa filiformis; 2.5 g of ai/ha): 73% | LEFFI % control (Leptochloa filiformis; 5 g of ai/ha): 72% | ORYSW % damage (Oryza sativa [6]; 2.5 g of ai/ha): 6% | ORYSW % damage (Oryza sativa [6]; 5 g of ai/ha): 12% | ORYSW % damage (Oryza sativa [7]; 1.25 g of ai/ha): 0% | ORYSW % damage (Oryza sativa [7]; 2.5 g of ai/ha): 0% | ORYSW % damage (Oryza sativa [7]; 5 g of ai/ha): 1% | ORYSW % damage (Oryza sativa [8]; 1.25 g of ai/ha): 5% | ORYSW % damage (Oryza sativa [8]; 2.5 g of ai/ha): 10% | ORYSW % damage (Oryza sativa [8]; 5 g of ai/ha): 10% | ORYSW % damage (Oryza sativa [9]; 1.5 g of ai/ha): 10% | ORYSW % damage (Oryza sativa [9]; 3 g of ai/ha): 10% | ORYSW % damage (Oryza sativa [10]): 10% | COMBE % control (Commelina benghalensis; 2.5 g of ai/ha): 47% | COMBE % control (Commelina benghalensis; 5 g of ai/ha): 67% | ECHCG % control (Echinochloa crusgalli [11]): 10% | ECHCG % control (Echinochloa crusgalli [12]; 1.25 g of ai/ha): 0% | ECHCG % control (Echinochloa crusgalli [12]; 2.5 g of ai/ha): 0% | ECHCG % control (Echinochloa crusgalli [12]; 5 g of ai/ha): 0% | ORYSW % damage (Oryza sativa [13]; 2.5 g of ai/ha): 0% | ORYSW % damage (Oryza sativa [13]; 5 g of ai/ha): 0% | ORYSW % damage (Oryza sativa [14]; 1.25 g of ai/ha): 0% | ORYSW % damage (Oryza sativa [14]; 2.5 g of ai/ha): 0% | ORYSW % damage (Oryza sativa [14]; 5 g of ai/ha): 1%
